Patent US8030344B2, “Inhibitors of histone deacetylase” (MethylGene Inc., priority 2007, dated 2011)

Legend:
HMEC cells = assay: MTT assay on HMEC cells; type: cell-based; settings: Homo sapiens; similar MTT assay on HMEC cells
Protocol: (§1) HCT116 cells (2000/well) are plated into 96-well tissue culture plates one day before compound treatment. Representative compounds at various concentrations were added to the cells. The cells are incubated for 72 hours at 37° C. in 5% CO2 incubator. MTT (3-[4,5-dimethylthiazol-2-yl]-2,5 diphenyl tetrazolium bromide, Sigma) is added at a final concentration of 0.5 mg/ml and incubated with the cells for 4 hours before one volume of solubilization buffer (50% N,N-dimethylformamide, 20% SDS, pH 4.7) is added onto the cultured cells. After overnight incubation, solubilized dye is quantified by calorimetric reading at 570 nM using a reference at 630 nM. OD values are converted to cell numbers according to a standard growth curve of the relevant cell line. The concentration which reduces cell numbers to 50% of that of solvent treated cells is determined as MTT IC50. A similar assay is performed on HMEC cells.

HDAC-2 = HDAC-2 (Homo sapiens, UniProt Q92769); assay: Similar assay measuring HDAC-2 inhibitory activity; type: biochemical
Protocol: (§2) The following protocol is used to assay the compounds of the invention. In the assay, the buffer used is 25 mM HEPES, pH 8.0, 137 mM NaCl, 2.7 mM KCl, 1 mM MgCl2 and the substrate is Boc-Lys(Ac)-AMC in a 50 mM stock solution in DMSO. The enzyme stock solution is 4.08 μg/mL in buffer.
(§3) The compounds are pre-incubated (2 μl in DMSO diluted to 13 μl in buffer for transfer to assay plate) with enzyme (20 μl of 4.08 μg/ml) for 10 minutes at room temperature (35 μl pre-incubation volume). The mixture is pre-incubated for 5 minutes at room temperature. The reaction is started by bringing the temperature to 37° C. and adding 15 μl substrate. Total reaction volume is 50 μl. The reaction is stopped after 20 minutes by addition of 50 μl developer, prepared as directed by Biomol (Fluor-de-Lys developer, Cat. # KI-105). A plate is incubated in the dark for 10 minutes at room temperature before reading (λEx=360 nm, λEm=470 nm, Cutoff filter at 435 nm). Similar assays are performed to measure HDAC-2 inhibitory activity

HCT116 cells = assay: MTT assay on HCT116 cells; type: cell-based; settings: Homo sapiens, HCT-116; 72 hours incubation; concentration reducing cell numbers to 50% of solvent treated cells
Protocol: as §1

HDAC-1 = HDAC-1 (Homo sapiens, UniProt Q13547); assay: Inhibition of histone deacetylase enzymatic (HDAC-1) activity, Boc-Lys(Ac)-AMC fluorescence assay; type: biochemical
Protocol: Inhibition of Histone Deacetylase Enzymatic (HDAC-1) Activity
as §2, §3

HDAC-1, sequence (Q13547 whole entry): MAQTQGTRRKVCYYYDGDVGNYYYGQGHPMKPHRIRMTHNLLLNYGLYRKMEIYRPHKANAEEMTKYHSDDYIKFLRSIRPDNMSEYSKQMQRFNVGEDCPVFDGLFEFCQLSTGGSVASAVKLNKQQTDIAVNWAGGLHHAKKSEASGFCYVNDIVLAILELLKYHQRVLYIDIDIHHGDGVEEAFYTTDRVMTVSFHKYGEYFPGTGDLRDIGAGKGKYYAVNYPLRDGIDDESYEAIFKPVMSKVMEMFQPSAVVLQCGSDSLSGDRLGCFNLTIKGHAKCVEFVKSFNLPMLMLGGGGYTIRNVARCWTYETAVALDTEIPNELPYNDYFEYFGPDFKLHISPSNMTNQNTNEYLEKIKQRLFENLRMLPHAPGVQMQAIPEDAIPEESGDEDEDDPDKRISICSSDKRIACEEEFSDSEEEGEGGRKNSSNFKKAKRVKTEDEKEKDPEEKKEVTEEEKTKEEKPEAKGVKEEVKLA
HDAC-2, sequence (Q92769 whole entry): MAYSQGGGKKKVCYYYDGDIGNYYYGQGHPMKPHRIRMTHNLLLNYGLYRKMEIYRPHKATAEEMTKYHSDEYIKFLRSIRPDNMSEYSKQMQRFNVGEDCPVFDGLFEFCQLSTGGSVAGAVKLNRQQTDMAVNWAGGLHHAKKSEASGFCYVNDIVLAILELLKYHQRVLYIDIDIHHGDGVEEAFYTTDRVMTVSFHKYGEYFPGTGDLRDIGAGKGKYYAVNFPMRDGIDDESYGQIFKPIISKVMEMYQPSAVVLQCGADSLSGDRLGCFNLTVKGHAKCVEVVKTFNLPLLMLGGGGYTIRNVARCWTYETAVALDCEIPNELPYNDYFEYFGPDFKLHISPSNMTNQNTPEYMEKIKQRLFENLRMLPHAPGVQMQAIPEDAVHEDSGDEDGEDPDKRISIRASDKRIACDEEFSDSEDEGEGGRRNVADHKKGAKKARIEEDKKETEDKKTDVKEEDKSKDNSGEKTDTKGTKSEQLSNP

| SMILES | IC50 (HMEC cells) | IC50 (HDAC-2) | IC50 (HCT116 cells) | IC50 (HDAC-1) |
| --- | --- | --- | --- | --- |
| CC(C)COC(=O)N[C@H]1CCN(c2ccc(C(=O)Nc3ccccc3N)cc2)C1 [Compound 123, (S)-Isobutyl 1-(4-(2-aminophenylcarbamoyl)phenyl)pyrrolidin-3-yl carbamate] | ≤ 50 µM | ≤ 5 µM | ≤ 0.5 µM | ≤ 0.5 µM |
| CN(C)CCOC(=O)N[C@H]1CCN(c2ccc(C(=O)Nc3ccccc3N)cc2)C1 [Compound 119, (S)-2-(Dimethylamino)ethyl-1-(4-(2-aminophenylcarbamoyl) -phenyl)pyrrolidin-3-ylcarbamate] | > 50 µM | ≤ 0.5 µM | ≤ 1 µM | ≤ 0.5 µM |
| Nc1ccccc1NC(=O)c1ccc(N2CC[C@H](NC(=O)OCc3ccncc3)C2)cc1 [Compound 142, (S)-Pyridin-4-ylmethyl 1-(4-(2-aminophenylcarbamoyl)phenyl)pyrrolidin-3-yl carbamate] | ≤ 50 µM | ≤ 0.5 µM | ≤ 1 µM | ≤ 0.1 µM |
| COc1cc(CN(C(=O)OCc2ccccc2)[C@H]2CCN(c3ccc(C(=O)Nc4ccccc4N)cc3)C2)cc(OC)c1OC [Compound 197, (S)-benzyl 1-(4-(2-aminophenylcarbamoyl)phenyl)-pyrrolidin-3-yl(3,4,5-trimethoxybenzyl)carbamate] | > 50 µM | ≤ 0.5 µM | ≤ 1 µM | ≤ 0.5 µM |
| Nc1ccccc1NC(=O)c1ccc(N2CC[C@H](OC(=S)NCCN3CCOCC3)C2)cc1 [Compound 163, (S)-O-1-(4-(2-Aminophenylcarbamoyl)phenyl)pyrrolidin-3-yl 2-morpholinoethylcarbamothioate] | ≤ 50 µM | ≤ 5 µM | ≤ 5 µM | ≤ 0.5 µM |
| CCNC(=O)O[C@H]1CCN(c2ccc(C(=O)Nc3ccccc3N)cc2)C1 [Compound 162, (S)-1-(4-(2-Aminophenylcarbamoyl)phenyl)pyrrolidin-3-yl ethyl carbamate] | > 50 µM | ≤ 5 µM | ≤ 5 µM | ≤ 0.5 µM |
| Nc1ccccc1NC(=O)c1ccc(N2CC[C@H](NC(=O)OCc3ccoc3)C2)cc1 [Compound 145, (S)-Furan-3-ylmethyl 1-(4-(2-aminophenylcarbamoyl)phenyl) pyrrolidin-3-yl carbamate] | ≤ 50 µM | ≤ 0.5 µM | ≤ 0.5 µM | ≤ 0.1 µM |
| Nc1ccccc1NC(=O)c1ccc(N2CC[C@H](NC(=O)N3CCOCC3)C2)cc1 [Compound 126, (S)-N-(1-(4-(2-Aminophenylcarbamoyl)phenyl)pyrrolidin-3-yl)morpholine-4-carboxamide] | > 50 µM | ≤ 1 µM | ≤ 1 µM | ≤ 0.5 µM |
| Nc1ccccc1NC(=O)c1ccc(N2CC[C@H](NC(=O)OCC(F)(F)F)C2)cc1 [Compound 140, (S)-2,2,2-Trifluoroethyl 1-(4-(2-aminophenylcarbamoyl)phenyl) -pyrrolidin-3-ylcarbamate] | ≤ 10 µM | ≤ 0.5 µM | ≤ 1 µM | ≤ 0.5 µM |
